One test has as its target T1, C. elegans KCC-2 (Caenorhabditis elegans, UniProt G5EEC9).
T1 sequence (G5EEC9 1-1079): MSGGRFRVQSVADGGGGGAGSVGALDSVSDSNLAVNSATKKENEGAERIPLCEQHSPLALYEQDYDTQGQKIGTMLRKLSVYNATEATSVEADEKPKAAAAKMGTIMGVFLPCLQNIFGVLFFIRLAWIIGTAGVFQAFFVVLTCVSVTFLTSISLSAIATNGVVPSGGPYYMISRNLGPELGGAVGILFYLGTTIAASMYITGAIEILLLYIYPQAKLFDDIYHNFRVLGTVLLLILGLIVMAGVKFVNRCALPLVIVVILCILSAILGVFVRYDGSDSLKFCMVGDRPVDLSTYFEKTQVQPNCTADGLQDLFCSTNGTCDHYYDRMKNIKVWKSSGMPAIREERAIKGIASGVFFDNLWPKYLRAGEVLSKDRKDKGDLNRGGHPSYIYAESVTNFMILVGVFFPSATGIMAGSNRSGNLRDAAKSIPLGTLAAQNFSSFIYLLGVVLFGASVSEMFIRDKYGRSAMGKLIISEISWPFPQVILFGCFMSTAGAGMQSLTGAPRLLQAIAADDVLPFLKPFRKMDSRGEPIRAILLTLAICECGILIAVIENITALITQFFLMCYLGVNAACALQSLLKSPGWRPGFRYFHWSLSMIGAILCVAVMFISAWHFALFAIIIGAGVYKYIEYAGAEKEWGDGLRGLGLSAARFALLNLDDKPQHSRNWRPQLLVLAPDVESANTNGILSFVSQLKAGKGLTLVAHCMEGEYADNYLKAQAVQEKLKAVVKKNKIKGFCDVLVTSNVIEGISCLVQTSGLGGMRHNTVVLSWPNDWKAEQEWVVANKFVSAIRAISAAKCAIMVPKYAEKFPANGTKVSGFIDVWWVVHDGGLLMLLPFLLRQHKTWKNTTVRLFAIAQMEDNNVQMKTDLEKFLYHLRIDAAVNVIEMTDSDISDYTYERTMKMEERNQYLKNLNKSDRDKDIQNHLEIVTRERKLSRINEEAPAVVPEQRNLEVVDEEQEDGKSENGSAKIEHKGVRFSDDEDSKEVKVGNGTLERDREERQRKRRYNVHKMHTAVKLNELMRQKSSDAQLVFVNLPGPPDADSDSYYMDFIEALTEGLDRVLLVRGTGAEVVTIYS
Put plainly: […] influx into Xenopus oocytes. The test is classed as cell-based.

A further test deals with T2, rat KCC2 (Rattus norvegicus, UniProt Q63633).
T2 sequence (Q63633 1-1139): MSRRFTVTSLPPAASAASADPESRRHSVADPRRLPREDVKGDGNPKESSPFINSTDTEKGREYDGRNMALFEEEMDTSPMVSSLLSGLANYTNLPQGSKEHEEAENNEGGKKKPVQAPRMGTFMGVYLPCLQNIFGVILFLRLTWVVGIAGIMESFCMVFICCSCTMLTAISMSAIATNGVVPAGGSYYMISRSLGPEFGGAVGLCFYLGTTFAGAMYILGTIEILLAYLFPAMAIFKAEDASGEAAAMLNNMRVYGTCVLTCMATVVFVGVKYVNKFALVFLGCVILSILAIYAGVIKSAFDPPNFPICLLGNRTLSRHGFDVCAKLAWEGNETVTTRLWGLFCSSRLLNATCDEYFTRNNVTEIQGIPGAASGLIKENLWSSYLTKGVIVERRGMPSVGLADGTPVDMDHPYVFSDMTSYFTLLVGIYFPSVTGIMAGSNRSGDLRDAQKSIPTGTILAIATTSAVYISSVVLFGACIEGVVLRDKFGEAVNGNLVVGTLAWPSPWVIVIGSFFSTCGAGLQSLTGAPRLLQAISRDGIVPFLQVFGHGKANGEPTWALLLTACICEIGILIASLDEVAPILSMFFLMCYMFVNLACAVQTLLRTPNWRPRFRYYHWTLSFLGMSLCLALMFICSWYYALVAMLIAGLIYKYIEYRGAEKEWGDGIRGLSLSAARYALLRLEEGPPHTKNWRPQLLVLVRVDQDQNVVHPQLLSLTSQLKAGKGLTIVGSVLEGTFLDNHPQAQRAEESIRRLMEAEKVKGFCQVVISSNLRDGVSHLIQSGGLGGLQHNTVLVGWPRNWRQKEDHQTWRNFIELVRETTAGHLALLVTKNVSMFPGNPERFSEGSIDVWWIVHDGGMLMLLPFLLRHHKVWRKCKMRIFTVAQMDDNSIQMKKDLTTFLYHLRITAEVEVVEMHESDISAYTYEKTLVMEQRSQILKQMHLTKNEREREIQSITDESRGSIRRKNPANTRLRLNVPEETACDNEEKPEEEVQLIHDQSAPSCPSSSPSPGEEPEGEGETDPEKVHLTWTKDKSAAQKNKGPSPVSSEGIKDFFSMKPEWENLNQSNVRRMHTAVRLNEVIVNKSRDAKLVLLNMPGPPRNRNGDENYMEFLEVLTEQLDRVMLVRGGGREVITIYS
Put plainly: […] influx into Xenopus oocytes. The test is classed as cell-based. The following applies: hypotonic medium, 79 mM chloride, 2 mM RbCl; 0.01 mM ouabain; inhibitor.

Broadly, the IC50 is the concentration that gives 50% inhibition. A high value points to lower potency.

`CCCCNc1cc(C(=O)O)cc(S(N)(=O)=O)c1Oc1ccccc1` [bumetanide]: the values for the IC50 against C. elegans KCC-2 and at rat KCC2 were 32 ± 3 µM and 72 ± 16 µM, respectively.

The values are drawn from paper PMC2737711 (The Journal of neuroscience : the official journal of the …, 2009).
